Measurements reported in patent US9839214B2, “Solavetivone and 5-epi-beta-vertivone as pest repellants and pesticides” (EVOLVA, INC., priority 2012, dated 2017).

Key:
[1] = test system: adult bed bugs (Cimex lectularius); assay: Bed bug repellency on half-treated filter paper in Petri dish chambers, Day 1; format: in vivo; conditions: for Repellancy / Repellancy, Averages: 0.5% active and 0.1% BHT in acetone on filter paper; for Repellancy / Repellancy, Averages / # bed bugs on the treated filter paper / # bed bugs on the treated filter paper, Averages: Day 1; for Repellancy: 50 bed bugs; for Repellancy, Averages / # bed bugs on the treated filter paper, Averages: average of 0.5-24 hr readings; for # bed bugs on the treated filter paper / # bed bugs on the treated filter paper, Averages: 0.5% active and 0.1% BHT in acetone, of 50 bed bugs; for time for which bed bugs are repelled following treatment: 0.5% active, Day 1 test
Method: A formulation, containing 0.5% solavetivone and 0.1% butylated hydroxytoluene (BHT) in acetone was tested for efficacy for repelling adult bed bugs (Cimex lectularius). Treatment chambers were created by cutting a circular hole in the bottom of 9-cm Petri dishes. A fine mesh nylon cloth was then glued to Petri dishes, covering the holes. The chambers were formed using the inverted Petri dishes with the screened bottoms serving as the tops and the lids forming the base of the chambers. The lids were secured with rubber bands. Five semi-circular pieces of filter paper, with a diameter of 9 cm were arranged so that they were evenly spaced on a sheet of aluminum foil. One (1) mL of 0.5% solavetivone solution, stored at ambient temperature and humidity, was applied to the filter papers. Five untreated semi-circular pieces were marked with the letter “c”, for control, on both sides in pencil or solvent resistant ink. One solavetivone-treated filter paper and one untreated filter paper were placed with the flat sides against each other, creating a full circle, in the lids of five 9-cm Petri dishes, serving as the treatment chambers described above, such that the entire surface of the lid was covered. Prior to addition of the bed bugs, the filter papers were confirmed to be completely dry and free of any residual acetone odor. Ten (10) bed bugs, having received a blood meal no more than 7 days before, were placed onto the untreated piece of paper and covered with the ventilated base of the Petri dish. The containers of each replicate were then kept at ambient laboratory temperature and humidity for the duration of the study. The distribution of the bed bugs on the treated and untreated filter papers was recorded at 0.5, 1, 1.5, 2, and 24 hours after being placed in the containers. Observations were made in darkness with the aid of a red lens flashlight. Gloves and a dust mask were worn by the observer to reduce detection of the bed bugs and to minimize disturbance caused by the observer. Five additional treatment chambers were created as described above, except the treated filter paper was soaked with acetone with 0.1% BHT (control treatment), instead of the 0.5% solavetivone solution. Bed bug distribution in the control chambers were recorded as described for the treatment condition. The solavetivone treatment repellency was calculated from the following equation: R=[(C−T)/C]*100, where R is the % repellency, C is the fraction of bed bugs on the acetone-treated filter papers, and T is the fraction of bed bugs on the solavetivone-treated filter papers. […] A formulation, containing 0.5% 5-epi-β-vetivone and 0.1% butylated hydroxytoluene (BHT) in acetone was tested for efficacy for repelling adult bed bugs (Cimex lectularius). Treatment chambers were prepared as described in Example 1A. Five semi-circular pieces of filter paper, with a diameter of 9 cm were arranged so that they were evenly spaced on a sheet of aluminum foil. One (1) mL of 0.5% 5-epi-β-vetivone solution, stored at ambient temperature and humidity, was applied to the filter papers. Five untreated semi-circular pieces were marked with the letter “c”, for control, on both sides in pencil or solvent resistant ink. One 5-epi-β-vetivone-treated filter paper and one untreated filter paper were placed with the flat sides against each other, creating a full circle, in the lids of five 9-cm Petri dishes, serving as the treatment chambers described above, such that the entire surface of the lid was covered. Prior to addition of the bed bugs, the filter papers were confirmed to be completely dry and free of any residual acetone odor. Ten (10) bed bugs, having received a blood meal no more than 7 days before, were placed onto the untreated piece of paper and covered with the ventilated base of the Petri dish. The containers of each replicate were then kept at ambient laboratory temperature and humidity for the duration of the study. […]

[2] = test system: bed bug (Cimex lectularius); assay: Extended bed bug repellency, same treated chambers with new bed bugs, Day 2; format: in vivo; conditions: for Repellancy / Repellancy, Averages: 0.5% active and 0.1% BHT in acetone on filter paper; for Repellancy / # bed bugs on the treated filter paper: Day 2, new bed bugs; for Repellancy: 50 bed bugs; for Repellancy, Averages / # bed bugs on the treated filter paper, Averages / time for which bed bugs are repelled following treatment: Day 2; for Repellancy, Averages / # bed bugs on the treated filter paper, Averages: average of 0.5-24 hr readings; for # bed bugs on the treated filter paper / # bed bugs on the treated filter paper, Averages: 0.5% active and 0.1% BHT in acetone, of 50 bed bugs; for time for which bed bugs are repelled following treatment: 0.5% active, extended test
Method: The bed bug (Cimex lectularius) treatment chambers described in part A above were used to test the duration of 0.5% solavetivone in acetone repellent effects. At the end of 24 hours, the old bed bugs were removed from each Petri dish and 10 new bed bugs were added to each dish, for a total of 50 bed bugs. The distribution of the new set of bed bugs was recorded at 0.5, 1, 1.5, 2, and 24 hours after their introduction to the chamber (Day 2). Observations were made and repellency was calculated as described in Section A above. […] The bed bug (Cimex lectularius) treatment chambers described in part A above were used to test the duration of 0.5% 5-epi-β-vetivone in acetone repellent effects. At the end of 24 hours, the old bed bugs were removed from each Petri dish and 10 new bed bugs were added to each dish, for a total of 50 bed bugs. The distribution of the new set of bed bugs was recorded at 0.5, 1, 1.5, 2, and 24 hours after their introduction to the chamber (Day 2). Observations were made and repellency was calculated as described in Section A above.

| Compound | Repellancy ([1]; 0.5 hr) [%] | Repellancy ([1]; 1.0 hr) [%] | Repellancy ([1]; 1.5 hr) [%] | Repellancy ([1]; 2.0 hr) [%] | Repellancy ([1]; 24.0 hr) [%] | Repellancy, Averages [1] [%] | # bed bugs on the treated filter paper ([1]; 0.5 hr) | # bed bugs on the treated filter paper ([1]; 1.0 hr) | # bed bugs on the treated filter paper ([1]; 1.5 hr) | # bed bugs on the treated filter paper ([1]; 2.0 hr) | # bed bugs on the treated filter paper ([1]; 24.0 hr) | # bed bugs on the treated filter paper, Averages [1] | time for which bed bugs are repelled following treatment [1] | Repellancy ([2]; 0.5 hr after introduction) [%] | Repellancy ([2]; 1.0 hr after introduction) [%] | Repellancy ([2]; 1.5 hr after introduction) [%] | Repellancy ([2]; 2.0 hr after introduction) [%] | Repellancy ([2]; 24.0 hr after introduction) [%] | Repellancy, Averages [2] [%] | # bed bugs on the treated filter paper ([2]; 0.5 hr) | also measured |
| --- | --- | --- | --- | --- | --- | --- | --- | --- | --- | --- | --- | --- | --- | --- | --- | --- | --- | --- | --- | --- | --- |
| CC1=CC(=O)C[C@@H](C)[C@@]12CCC(=C(C)C)C2 [5-epi-β-vetivone] | 88.0 | 94.0 | 98.0 | 96.0 | 100.0 | 95.2 | 6 | 3 | 1 | 2 | 0 | 2.4 | at least 24 hours | 92.0 | 94.0 | 94.0 | 92.0 | 96.0 | 93.6 | 4 | # bed bugs on the treated filter paper ([2]; 1.0 hr): 3; # bed bugs on the treated filter paper ([2]; 1.5 hr): 3; # bed bugs on the treated filter paper ([2]; 2.0 hr): 4; # bed bugs on the treated filter paper ([2]; 24.0 hr): 2; # bed bugs on the treated filter paper, Averages [2]: 3.2; time for which bed bugs are repelled following treatment [2]: at least 48 hours |
| C=C(C)[C@@H]1CC[C@@]2(C1)C(C)=CC(=O)C[C@H]2C [Solavetivone, solavetivone] | 92.0 | 90.0 | 92.0 | 96.0 | 98.0 | 93.6 | 4 | 5 | 4 | 2 | 1 | 3.2 | at least 24 hours | 96.0 | 96.0 | 88.0 | 90.0 | 90.0 | 92.0 | 2 | # bed bugs on the treated filter paper ([2]; 1.0 hr): 2; # bed bugs on the treated filter paper ([2]; 1.5 hr): 6; # bed bugs on the treated filter paper ([2]; 2.0 hr): 5; # bed bugs on the treated filter paper ([2]; 24.0 hr): 5; # bed bugs on the treated filter paper, Averages [2]: 4.0; time for which bed bugs are repelled following treatment [2]: at least 48 hours |
